From patent publication US20250066286A1, “COMPOSITIONS OF (Z)-ENDOXIFEN AND METHODS OF ENRICHMENT THEREOF” (Atossa Therapeutics, Inc., priority 2022, published 2025)
Values after ≈ are worked out from the molar mass of the structure shown. Read-outs that look alike come from different tables or passages of the source.

Experiment: Solvent mixture solubility tests of (Z)-endoxifen
Assay type: physicochemical
Conditions: for solubility: thermodynamic from solid
Description: To test the solubility of (Z)-endoxifen in varying conditions, 10 mg of (Z)-endoxifen was added to a stoppered tube, and 0.01 ml of the selected solvent was added (1000 mg/ml solution). The tube was shaken vigorously for 1 minute and then incubated at a constant temperature of 25.0° C. for 15 minutes. If the solid was not completed dissolved, the tube was shaken again and placed at the constant temperature of 25.0° C. for another 15 minutes. If the solid was completely dissolved at this step, it was considered to be very soluble in the selected solvent system. If the solid was not dissolved by this step, another 0.09 ml was added (yielding a 100 mg/ml solution) and an attempt to further dissolve the solid was made by the same steps of shaking and incubating twice over as described previously. If the solid was completely dissolved at this step, it was considered freely soluble. If the solid was not dissolved by this step another 0.2 ml was added (yielding a 33.3 mg/ml solution) and an attempt to further dissolve the solid was made by the same steps of shaking and incubating twice over as described previously. If the solid was completely dissolved at this step, it was considered soluble. If the solid was not dissolved by this step another, 0.7 ml was added (yielding a 10 mg/ml solution) and an attempt to further dissolve the solid was made by the same steps of shaking and incubating twice over as described previously. If the solid was completely dissolved at this step, it was considered sparingly soluble. If the solid was not dissolved by this step the sample was considered to be slightly soluble or very slightly soluble and the solution was heated until the boiling point of the solvent system (max 100° C.) under stirring with a rate of 0.5° C. per minute temperature ramp rate to verify the solubility at high temperatures. The hot solution was after cooled to room temperature with a cooling rate of 0.5° C. per minute to verify if the sample had precipitated after up to 18 hours under magnetic stirring. The same procedure was also used for the solvent mixture solubility tests. The concentrations investigated for the solvent mixture stability were 40 mg/ml and 100 mg/ml. Some solutions in the following example were precipitated by cooling of the solution from a temperature between 50-100° C. to between 10-25° C. at a rate ranging from −0.2 to −0.5° C./minute resulting in a precipitate.

[1] = ethyl acetate/tetrahydrofuran 95/5 v/v, 40 mg/mL
[2] = heptane/2-propanol 50/50 v/v, 40 mg/mL

With CC/C(=C(\c1ccc(O)cc1)c1ccc(OCCNC)cc1)c1ccccc1 [(Z)-endoxifen, (Z)-4-(1-(4-(2-(methylamino)ethoxy)phenyl)-2-phenylbut-1-enyl)phenol] as the molecule, how does the “Solubility HT (100 mg/mL): Cloudy point” value (ethyl acetate/2-propanol 50/50 v/v, 100 mg/mL) read?
The value was 25 °C.

What about the “Solubility HT (100 mg/mL): Sol. HT” value (ethyl acetate/2-propanol 50/50 v/v, 100 mg/mL, high temperature) of the same molecule?
Its value is “YES”.

And the “Solubility HT (100 mg/mL): Re-PPT” value (ethyl acetate/2-propanol 50/50 v/v, 100 mg/mL, on cooling)?
Its value is “YES”.

What about the solubility (ethyl acetate/2-propanol (50/50 v/v), organic solvent or mixture, ethyl acetate/2-propanol (50/50 v/v), high temperature, precipitated during cooling, read-out: Solubility) of the same molecule?
Its solubility is 100 mg/mL (≈ 268 mM).

What about the solubility (ethyl acetate/THF (95/5 v/v), organic solvent or mixture, ethyl acetate/THF (95/5 v/v), high temperature, precipitated during cooling, read-out: Solubility) of the same molecule?
Its solubility is 40 mg/mL (≈ 107 mM).

What about the solubility (ethyl acetate/tetrahydrofuran 95/5 v/v, organic solvent or mixture, ethyl acetate/tetrahydrofuran 95/5 v/v, 100 mg/mL, high temperature, read-out: Solubility HT (100 mg/mL): Sol. HT) of the same molecule?
The solubility was less than 100 mg/mL.

And the “Solubility HT (40 mg/mL): Clear point” value [1]?
Its value is 56.3 °C.

And the “Solubility HT (40 mg/mL): Cloudy point” value [1]?
Its value is 51.3 °C.

What about the “Solubility HT (40 mg/mL): Sol. HT” value (ethyl acetate/tetrahydrofuran 95/5 v/v, 40 mg/mL, high temperature) of the same molecule?
The value was “YES”.

What about the “Solubility HT (40 mg/mL): Re-PPT” value (ethyl acetate/tetrahydrofuran 95/5 v/v, 40 mg/mL, on cooling) of the same molecule?
The value was “YES”.

And the solubility (heptane/2-propanol 50/50 v/v, organic solvent or mixture, heptane/2-propanol 50/50 v/v, 100 mg/mL, high temperature, read-out: Solubility HT (100 mg/mL): Sol. HT)?
Its solubility is less than 100 mg/mL.

What about the “Solubility HT (40 mg/mL): Clear point” value [2] of the same molecule?
Its value is 64.5 °C.

What about the “Solubility HT (40 mg/mL): Cloudy point” value [2] of the same molecule?
Its value is 33.7 °C.

What about the “Solubility HT (40 mg/mL): Sol. HT” value (heptane/2-propanol 50/50 v/v, 40 mg/mL, high temperature) of the same molecule?
Its value is “YES”.

And the “Solubility HT (40 mg/mL): Re-PPT” value (heptane/2-propanol 50/50 v/v, 40 mg/mL, on cooling)?
The value was “YES”.

And the solubility (heptane/2-propanol (50/50 v/v), organic solvent or mixture, heptane/2-propanol (50/50 v/v), high temperature, precipitated during cooling, read-out: Solubility)?
Its solubility is 40 mg/mL (≈ 107 mM).

What about the solubility (heptane/ethyl acetate 50/50 v/v, organic solvent or mixture, heptane/ethyl acetate 50/50 v/v, 40 mg/mL, high temperature, read-out: Solubility HT (40 mg/mL): Sol. HT) of the same molecule?
The solubility was less than 40 mg/mL.

And the solubility (heptane/ethyl acetate 50/50 v/v, organic solvent or mixture, heptane/ethyl acetate 50/50 v/v, 100 mg/mL, high temperature, read-out: Solubility HT (100 mg/mL): Sol. HT)?
Its solubility is less than 100 mg/mL.

What about the solubility (heptane/ethyl acetate (50/50 v/v), organic solvent or mixture, heptane/ethyl acetate (50/50 v/v), high temperature, read-out: Solubility) of the same molecule?
Its solubility is less than 40 mg/mL.

What about the solubility (heptane/toluene 50/50 v/v, organic solvent or mixture, heptane/toluene 50/50 v/v, 40 mg/mL, high temperature, read-out: Solubility HT (40 mg/mL): Sol. HT) of the same molecule?
The solubility was less than 40 mg/mL.

What about the solubility (heptane/toluene 50/50 v/v, organic solvent or mixture, heptane/toluene 50/50 v/v, 100 mg/mL, high temperature, read-out: Solubility HT (100 mg/mL): Sol. HT) of the same molecule?
The solubility was less than 100 mg/mL.

What about the solubility (heptane/toluene (50/50 v/v), organic solvent or mixture, heptane/toluene (50/50 v/v), high temperature, read-out: Solubility) of the same molecule?
The solubility was less than 40 mg/mL.

And the solubility (water/2-propanol 50/50 v/v, aqueous with cosolvent or surfactant or cyclodextrin, water/2-propanol 50/50 v/v, 40 mg/mL, high temperature, read-out: Solubility HT (40 mg/mL): Sol. HT)?
Its solubility is less than 40 mg/mL.

What about the solubility (water/2-propanol 50/50 v/v, aqueous with cosolvent or surfactant or cyclodextrin, water/2-propanol 50/50 v/v, 100 mg/mL, high temperature, read-out: Solubility HT (100 mg/mL): Sol. HT) of the same molecule?
The solubility was less than 100 mg/mL.

And the solubility (water/2-propanol (50/50 v/v), aqueous with cosolvent or surfactant or cyclodextrin, water/2-propanol (50/50 v/v), high temperature, read-out: Solubility)?
Its solubility is less than 40 mg/mL.

What about the solubility (water/THF (50/50 v/v), aqueous with cosolvent or surfactant or cyclodextrin, water/THF (50/50 v/v), high temperature, read-out: Solubility) of the same molecule?
The solubility was less than 40 mg/mL.

And the solubility (water/acetonitrile 50/50 v/v, aqueous with cosolvent or surfactant or cyclodextrin, water/acetonitrile 50/50 v/v, 40 mg/mL, high temperature, read-out: Solubility HT (40 mg/mL): Sol. HT)?
Its solubility is less than 40 mg/mL.

And the solubility (water/acetonitrile 50/50 v/v, aqueous with cosolvent or surfactant or cyclodextrin, water/acetonitrile 50/50 v/v, 100 mg/mL, high temperature, read-out: Solubility HT (100 mg/mL): Sol. HT)?
The solubility was less than 100 mg/mL.

What about the solubility (water/acetonitrile (50/50 v/v), aqueous with cosolvent or surfactant or cyclodextrin, water/acetonitrile (50/50 v/v), high temperature, read-out: Solubility) of the same molecule?
Its solubility is less than 40 mg/mL.

And the solubility (water/tetrahydrofuran 95/5 v/v, aqueous with cosolvent or surfactant or cyclodextrin, water/tetrahydrofuran 95/5 v/v, 40 mg/mL, high temperature, read-out: Solubility HT (40 mg/mL): Sol. HT)?
The solubility was less than 40 mg/mL.

What about the solubility (water/tetrahydrofuran 95/5 v/v, aqueous with cosolvent or surfactant or cyclodextrin, water/tetrahydrofuran 95/5 v/v, 100 mg/mL, high temperature, read-out: Solubility HT (100 mg/mL): Sol. HT) of the same molecule?
Its solubility is less than 100 mg/mL.
